From US20230192878A1, “METHODS, THERAPIES AND USES FOR TREATING CANCER” (PFIZER INC., priority 2020, published 2023)

Key:
OPM2 = assay: Soluble BCMA (sBCMA) shedding after GSI (ELISA); assay type: cell-based, Human; set-up: unit not given here; conditions: Table 6 (sBCMA in supernatant, ELISA), 24 hours
Raji = assay: Cell surface BCMA expression after GSI, time course and washout, lymphoma cells; assay type: cell-based
Experimental: Lymphoma cells (Raji) were seeded in a 6-well plate at 800,000 cells/2 ml/well with GSI diluted at 1 μM in RPMI medium (with 0.1% DMSO). Cells were collected to evaluate cell surface BCMA expression at baseline, and then at 3 hours, 6 hours and 24 hours after addition of the GSI. After 24 hours of incubation with the GSI, cells were washed twice in PBS and re-plated in fresh 6-well plates. […] At the indicated time points, samples were stained with a ZombieNIR Viability dye (Biolegend) for 20 minutes at room temperature at 1 in 500 dilution in PBS, washed with PBS+2% FBS and further stained with anti-BCMA PE-labelled antibody diluted in PBS+2% FBS for 30 minutes at 4° C. Samples were acquired on BD Flow Cytometer and analyzed using FlowJo software. Dead cells were removed from the analysis by gating on ZombieNIR negative population. BCMA mean fluorescence intensity (MFI) was plotted as a histogram.

MM.1S = assay: Cell surface BCMA expression after GSI, concentration series; assay type: cell-based; conditions: 24 hours
Experimental: (§1) Multiple myeloma cells (MM.1S, OPM2, H929, Molp8, RPMI8226) were seeded in a 96-well U bottom plate at 40,000 cells/well. Cells were incubated for 24 hours in the presence of GSI diluted in RPMI (0.1% DMSO). The following concentrations of the GSI were tested: 1000 nM, 500 nM, 100 nM, 50 nM, 25 nM, 10 nM, 5 nM, 2.5 nM, 1 nM, 0.1 nM, 0.01 nM. 24 hours later cells were collected and washed with PBS+2% FBS, followed by staining with ZombieNIR Viability Dye (Biolegend) at 1 in 500 dilution in PBS at room temperature for 20 minutes. Next, cells were washed with PBS+2% FBS and stained with anti-BCMA PE-labelled antibody (Biolegend) diluted in PBS+2% FBS for 30 minutes at 4° C. Cells were acquired on BD Flow Cytometer and analyzed using FlowJo flow cytometry analysis software. Dead cells were removed from analysis by gating on ZombieNIR negative population. BCMA mean fluorescence intensity (MFI) was plotted against GSI concentration to establish EC50.

H929 = assay: as above; assay type: cell-based; conditions: 24 hours
Experimental: as §1

OPM2-luc = assay: BCMAxCD3 bispecific mediated cell killing with human T cells, with or without GSI; assay type: cell-based; conditions: for OPM2 cell viability (% control): 60 hours, with or without 1 μM GSI
Experimental: (§2) CD3^+ T cells from PBMCs (Stem Cell Technologies) were negatively selected using EasySep Human T cell enrichment kit (Stem Cell Technologies). Multiple myeloma cells expressing luciferase (MM.1S-luc, OPM2-luc, H929-luc, Molp8-luc, RPM18226-luc) were treated with 1 μM GSI […]. After 24 hours, cells were seeded with 50,000 CD3^+ pan T cells in a clear 96-well V-bottom plate. Cells were further treated with a range of BCMAxCD3 bispecific antibody concentrations with or without 1 μM GSI. 60 hours after treatment, luciferase activity in treated cells was analyzed using NeoLite reagent kit (Perkin Elmer) and acquired on VictorX multimode plate reader (Perkin Elmer). Cell viability was calculated by dividing luciferase activity of treated cells over luciferase activity of untreated control (no BCMAxCD3 bispecific antibody added).

MM.1S-luc = assay: as above; assay type: cell-based; conditions: for MM.1S cell viability (% control): 60 hours, with or without 1 μM GSI
Experimental: as §2

RPMI8226 = assay: as above; assay type: cell-based; conditions: for RPMI8226 cell viability (% control): 60 hours, with or without 1 μM GSI
Experimental: as §2

CD8+ T cells = assay: PD-1 induction on CD8+ T cells co-cultured with MM.1S-luc cells; assay type: cell-based, human; conditions: 1 nM BCMAxCD3 bispecific, ± SD
Experimental: CD3+ T cells from PBMCs (Stem Cell Technologies) were negatively selected using EasySep Human T cell enrichment kit (Stem Cell Technologies). 10,000 target Multiple Myeloma MM.1S cells expressing luciferase (MM.1S-luc) were seeded with 50,000 CD3^+ pan T cells in a clear 96-well V-bottom plate. Cells were treated with 1 nM BCMAxCD3 bispecific antibody and PD-1 expression was analyzed at 3, 24, 48 and 72 hours after addition of the BCMAxCD3 bispecific. At the specified time points, cells were collected from the wells, washed with PBS+2% FBS, and stained with ZombieNIR Viability dye (Biolegend) in PBS for 20 minutes at room temperature, followed by staining with antibodies against human CD8 and PD-1 (Biolegend). Samples were analyzed using FlowJo flow cytometry analysis software. Dead cells were removed from analysis by gating on ZombieNIR negative population. Samples were further gated on CD8^+ positive population. Percentage of PD-1+ cells is expressed as PD-1 positive cells within the CD8+ population.

## CCC[C@H](N[C@H]1CCc2cc(F)cc(F)c2C1)C(=O)Nc1cn(C(C)(C)CNCC(C)(C)C)cn1 [GSI, nirogacestat]
OPM2; OPM2, GSI 0.01 nM
  BCMA (-PE) MFI: 6043.3
OPM2; OPM2, GSI 0.1 nM
  BCMA (-PE) MFI: 8872.2
OPM2; OPM2, GSI 1 nM
  BCMA (-PE) MFI: 8014
OPM2; OPM2, GSI 2.5 nM
  BCMA (-PE) MFI: 7726.5
OPM2; OPM2, GSI 5 nM
  BCMA (-PE) MFI: 7617.3
OPM2; OPM2, GSI 10 nM
  BCMA (-PE) MFI: 6488.6
OPM2; OPM2, GSI 25 nM
  BCMA (-PE) MFI: 4487.9
OPM2; OPM2, GSI 50 nM
  BCMA (-PE) MFI: 3055.7
OPM2; OPM2, GSI 100 nM
  BCMA (-PE) MFI: 1238.6
OPM2; OPM2, GSI 500 nM
  BCMA (-PE) MFI: 23.8
OPM2; OPM2, GSI 1000 nM
  BCMA (-PE) MFI: 0
Raji; GSI 1 μM for 24 h, 3 h post wash
  BCMA (-PE) MFI: 1619
Raji; GSI 1 μM for 24 h, 5 h post wash
  BCMA (-PE) MFI: 1822
Raji; GSI 1 μM for 24 h, 24 h post wash
  BCMA (-PE) MFI: 795
Raji; GSI 1 μM, 3 h after GSI
  BCMA (-PE) MFI: 699
Raji; GSI 1 μM, 6 h after GSI
  BCMA (-PE) MFI: 735
Raji; GSI 1 μM, 24 h after GSI
  BCMA (-PE) MFI: 1506
MM.1S; GSI 0.01 nM
  BCMA (-PE) MFI: 15589.5
MM.1S; GSI 0.1 nM
  BCMA (-PE) MFI: 15775.5
MM.1S; GSI 1 nM
  BCMA (-PE) MFI: 14396
MM.1S; GSI 2.5 nM
  BCMA (-PE) MFI: 21412.5
MM.1S; GSI 5 nM
  BCMA (-PE) MFI: 28832
MM.1S; GSI 10 nM
  BCMA (-PE) MFI: 31248
MM.1S; GSI 25 nM
  BCMA (-PE) MFI: 37026.5
MM.1S; GSI 50 nM
  BCMA (-PE) MFI: 38111
MM.1S; GSI 100 nM
  BCMA (-PE) MFI: 37582.5
MM.1S; GSI 500 nM
  BCMA (-PE) MFI: 35780
MM.1S; GSI 1000 nM
  BCMA (-PE) MFI: 35780
H929; H929, GSI 0.01 nM
  BCMA (-PE) MFI: 4824.5
H929; H929, GSI 0.1 nM
  BCMA (-PE) MFI: 5305.5
H929; H929, GSI 1 nM
  BCMA (-PE) MFI: 8615.5
H929; H929, GSI 2.5 nM
  BCMA (-PE) MFI: 10344.5
H929; H929, GSI 5 nM
  BCMA (-PE) MFI: 13226
H929; H929, GSI 10 nM
  BCMA (-PE) MFI: 15670
H929; H929, GSI 25 nM
  BCMA (-PE) MFI: 18445.5
H929; H929, GSI 50 nM
  BCMA (-PE) MFI: 17424.5
H929; H929, GSI 100 nM
  BCMA (-PE) MFI: 19455.5
H929; H929, GSI 500 nM
  BCMA (-PE) MFI: 20285.5
H929; H929, GSI 1000 nM
  BCMA (-PE) MFI: 21156
OPM2-luc; OPM2, 1 μM GSI
  Enhancement of BCMAxCD3 bispecific antibody mediated cell killing by GSI: 21 ×
MM.1S-luc; MM.1S, 1 μM GSI
  Enhancement of BCMAxCD3 bispecific antibody mediated cell killing by GSI: 21 ×
RPMI8226; RPMI8226, 1 μM GSI
  Enhancement of BCMAxCD3 bispecific antibody mediated cell killing by GSI: 24 ×

## PF-06863135: heterodimeric humanized full-length bispecific antibody with one BCMA binding arm and one CD3 binding arm
OPM2-luc; BCMAxCD3 0.00064 nM
  OPM2 cell viability (% control): 83.8 ± 3.4 % control
OPM2-luc; BCMAxCD3 0.0032 nM
  OPM2 cell viability (% control): 84.3 ± 3.1 % control
OPM2-luc; BCMAxCD3 0.016 nM
  OPM2 cell viability (% control): 68.4 ± 2.4 % control
OPM2-luc; BCMAxCD3 0.08 nM
  OPM2 cell viability (% control): 43.6 ± 6.4 % control
OPM2-luc; BCMAxCD3 0.4 nM
  OPM2 cell viability (% control): 3.1 ± 0.8 % control
OPM2-luc; BCMAxCD3 2 nM
  OPM2 cell viability (% control): 2.8 ± 0.8 % control
OPM2-luc; BCMAxCD3 10 nM
  OPM2 cell viability (% control): 2 ± 0.2 % control
OPM2-luc; BCMAxCD3 50 nM
  OPM2 cell viability (% control): 3.3 ± 0.3 % control
MM.1S-luc; BCMA × CD3 0.00001 nM
  MM.1S cell viability (% control): 80.6 ± 3.9 % control
MM.1S-luc; BCMA × CD3 0.00005 nM
  MM.1S cell viability (% control): 79.8 ± 2.9 % control
MM.1S-luc; BCMA × CD3 0.00026 nM
  MM.1S cell viability (% control): 78 ± 0.9 % control
MM.1S-luc; BCMA × CD3 0.00128 nM
  MM.1S cell viability (% control): 87.7 ± 4.4 % control
MM.1S-luc; BCMA × CD3 0.0064 nM
  MM.1S cell viability (% control): 108 ± 4.5 % control
MM.1S-luc; BCMA × CD3 0.032 nM
  MM.1S cell viability (% control): 2.5 ± 0.3 % control
MM.1S-luc; BCMA × CD3 0.16 nM
  MM.1S cell viability (% control): 1.7 ± 0.8 % control
MM.1S-luc; BCMA × CD3 0.8 nM
  MM.1S cell viability (% control): 2.4 ± 0.5 % control
MM.1S-luc; BCMA × CD3 4 nM
  MM.1S cell viability (% control): 1.3 ± 0.8 % control
RPMI8226; BCMAxCD3 0.00064 nM
  RPMI8226 cell viability (% control): 113.2 ± 10.6 % control
RPMI8226; BCMAxCD3 0.0032 nM
  RPMI8226 cell viability (% control): 130.5 ± 19.5 % control
RPMI8226; BCMAxCD3 0.016 nM
  RPMI8226 cell viability (% control): 113.4 ± 1.3 % control
RPMI8226; BCMAxCD3 0.08 nM
  RPMI8226 cell viability (% control): 54.2 ± 16.9 % control
RPMI8226; BCMAxCD3 0.4 nM
  RPMI8226 cell viability (% control): 28.7 ± 13.6 % control
RPMI8226; BCMAxCD3 2 nM
  RPMI8226 cell viability (% control): 25.7 ± 5.5 % control
RPMI8226; BCMAxCD3 10 nM
  RPMI8226 cell viability (% control): 19.9 ± 1.1 % control
RPMI8226; BCMAxCD3 50 nM
  RPMI8226 cell viability (% control): 19.4 ± 5 % control
CD8+ T cells; 3 hours
  % PD-1 (of CD8+ T cells): 12.8 ± 0.6%
CD8+ T cells; 24 hours
  % PD-1 (of CD8+ T cells): 18.9 ± 1.2%
CD8+ T cells; 48 hours
  % PD-1 (of CD8+ T cells): 69.9 ± 3.1%
CD8+ T cells; 72 hours
  % PD-1 (of CD8+ T cells): 69.9 ± 3.1%
